Results reported in patent US5110800A, “Derivatives of erythromycylamine” (Eli Lilly and Company, priority 1989, dated 1992).
Values after ≈ are worked out from the molar mass of the structure shown. Like-named read-outs stand apart in the source and are kept apart here.

Experiments:
Assay in all cases: MIC, standard agar-dilution assay
Format in all cases: cell-based
[1] = tested on: Streptococcus sp. group D 2041; conditions: Streptococcus, read-out: minimal inhibitory concentration (MIC)
[2] = tested on: Escherichia coli EC14; conditions: Escherichia coli
[3] = tested on: Staphylococcus epidermidis 222
[4] = tested on: Haemophilus influenzae C.L.; conditions: Haemophilus influenzae, read-out: minimal inhibitory concentration (MIC)
[5] = tested on: Streptococcus sp. group D X66; conditions: Streptococcus, read-out: minimal inhibitory concentration (MIC)
[6] = tested on: Haemophilus influenzae 76; conditions: Haemophilus influenzae, 76; Table IV; ampicillin-resistant strain; read-out: minimal inhibitory concentration (MIC)
[7] = tested on: Streptococcus pyogenes C203; conditions: Streptococcus pyogenes
[8] = tested on: Staphylococcus aureus X1.1; conditions: Staphylococcus aureus, X1.1, read-out: minimal inhibitory concentration (MIC)
[9] = tested on: Staphylococcus aureus S13E; conditions: Staphylococcus aureus, S13E, read-out: minimal inhibitory concentration (MIC)
[10] = tested on: Staphylococcus epidermidis 270; conditions: Staphylococcus epidermidis, 270; Table IV; constitutively erythromycin-resistant; read-out: minimal inhibitory concentration (MIC)
Text: (§1) In addition to excellent in vitro activity against erythromycin-sensitive bacteria, several members of this new series have shown in vitro activity against erythromycin-resistant strains. These include strains which are inducibly-resistant to erythromycin (S. aureus V41 and X400 and S. epidermidis EPI1) and even strains which are constitutively-resistant (S. epidermidis 270).

[11] = tested on: Staphylococcus aureus X400; conditions: Staphylococcus aureus, X400; Table IV; methicillin-resistant strain; inducibly erythromycin-resistant; read-out: minimal inhibitory concentration (MIC)
Text: as §1

[12] = tested on: Staphylococcus aureus V41; conditions: Staphylococcus aureus, V41; Table IV; penicillin-resistant strain; inducibly erythromycin-resistant; read-out: minimal inhibitory concentration (MIC)
Text: as §1

[13] = tested on: Klebsiella pneumoniae X68; conditions: Klebsiella pneumoniae
[14] = tested on: Streptococcus pneumoniae Park I; conditions: Streptococcus pneumoniae, read-out: minimal inhibitory concentration (MIC)
[15] = tested on: Staphylococcus epidermidis EPI1; conditions: EPI1, read-out: minimal inhibitory concentration (MIC)
Text: as §1

[16] = EC14, Table IV, agar dilution, read-out: minimal inhibitory concentration (MIC)
[17] = Staphylococcus epidermidis, 222, read-out: minimal inhibitory concentration (MIC)
[18] = Table IV, ampicillin-sensitive strain
[19] = C203, read-out: minimal inhibitory concentration (MIC)
[20] = X68, Table IV, agar dilution, read-out: minimal inhibitory concentration (MIC)
[21] = EC14, read-out: minimal inhibitory concentration (MIC)
[22] = X68, read-out: minimal inhibitory concentration (MIC)

| SMILES | MIC [1] | MIC [2, 16] | MIC [3, 17] | MIC [4, 18] | MIC [5] | MIC [6] | MIC [7, 19] | MIC [8] | MIC [9] | MIC [10] | MIC [11] | MIC [12] | MIC [13, 20] | MIC [2, 21] | MIC [4] | MIC ([14]; Table IV, agar dilution) | MIC [14] | MIC [13, 22] | MIC ([1]; Table IV, agar dilution) | further results |
| --- | --- | --- | --- | --- | --- | --- | --- | --- | --- | --- | --- | --- | --- | --- | --- | --- | --- | --- | --- | --- |
| CC[C@H]1OC(=O)[C@H](C)[C@@H](O[C@H]2C[C@@](C)(OC)[C@@H](O)[C@H](C)O2)[C@H](C)[C@@H](O[C@@H]2O[C@H](C)C[C@H](N(C)C)[C@H]2O)[C@](C)(O)C[C@@H](C)[C@H](NCCC2=C(C)CCCC2(C)C)[C@H](C)[C@@H](O)[C@]1(C)O [Compound 30, 9-Deoxo-9-[[2-(2,6,6-trimethyl-1-cyclohexen-1-yl)ethyl]amino]erythromycin] | 2 µg/mL (≈ 2.26 µM) | > 128 µg/mL | 1 µg/mL (≈ 1.13 µM) | 4 µg/mL (≈ 4.52 µM) | 0.125 µg/mL (≈ 0.141 µM) | 4 µg/mL (≈ 4.52 µM) | 0.5 µg/mL (≈ 0.565 µM) | 1 µg/mL (≈ 1.13 µM) | 2 µg/mL (≈ 2.26 µM) | 64 µg/mL (≈ 72.3 µM) | 32 µg/mL (≈ 36.1 µM) | 16 µg/mL (≈ 18.1 µM) | > 128 µg/mL | – | – | – | – | – | – | – |
| CC[C@H]1OC(=O)[C@H](C)[C@@H](O[C@H]2C[C@@](C)(OC)[C@@H](O)[C@H](C)O2)[C@H](C)[C@@H](O[C@@H]2O[C@H](C)C[C@H](N(C)C)[C@H]2O)[C@](C)(O)C[C@@H](C)[C@H](NCCOC)[C@H](C)[C@@H](O)[C@]1(C)O [Compound 31, 9-Deoxo-9-[(2-Methoxyethyl)amino]erythromycin] | 8 µg/mL (≈ 10.1 µM) | – | – | – | – | 2 µg/mL (≈ 2.52 µM) | 0.06 µg/mL (≈ 0.0757 µM) | 0.5 µg/mL (≈ 0.63 µM) | 0.5 µg/mL (≈ 0.63 µM) | > 128 µg/mL | > 128 µg/mL | > 128 µg/mL | 32 µg/mL (≈ 40.4 µM) | 16 µg/mL (≈ 20.2 µM) | 0.5 µg/mL (≈ 0.63 µM) | 0.03 µg/mL (≈ 0.0378 µM) | – | – | – | MIC ([3]; Staphylococcus epidermidis, 222, Table IV, agar dilution, read-out: minimal inhibitory concentration (MIC)): 0.25 µg/mL (≈ 0.315 µM); MIC ([5]; Table IV, agar dilution): 0.125 µg/mL (≈ 0.158 µM) |
| CCCN[C@@H]1[C@H](C)[C@@H](O)[C@@H](C)[C@@H](CC)OC(=O)[C@H](C)[C@@H](O[C@H]2C[C@@](C)(OC)[C@@H](O)[C@H](C)O2)[C@H](C)[C@@H](O[C@@H]2O[C@H](C)C[C@H](N(C)C)[C@H]2O)[C@](C)(O)C[C@H]1C [Compound 38] | 2 µg/mL (≈ 2.63 µM) | 64 µg/mL (≈ 84.1 µM) | 0.5 µg/mL (≈ 0.657 µM) | – | 0.125 µg/mL (≈ 0.164 µM) | 4 µg/mL (≈ 5.26 µM) | 0.125 µg/mL (≈ 0.164 µM) | 0.5 µg/mL (≈ 0.657 µM) | 1 µg/mL (≈ 1.31 µM) | > 128 µg/mL | 64 µg/mL (≈ 84.1 µM) | 8 µg/mL (≈ 10.5 µM) | – | – | 2 µg/mL (≈ 2.63 µM) | – | 0.125 µg/mL (≈ 0.164 µM) | 128 µg/mL (≈ 168 µM) | – | – |
| CCCCCCCCCCN[C@@H]1[C@H](C)[C@@H](O)[C@@H](C)[C@@H](CC)OC(=O)[C@H](C)[C@@H](O[C@H]2C[C@@](C)(OC)[C@@H](O)[C@H](C)O2)[C@H](C)[C@@H](O[C@@H]2O[C@H](C)C[C@H](N(C)C)[C@H]2O)[C@](C)(O)C[C@H]1C [Compound 41] | – | > 128 µg/mL | 0.5 µg/mL (≈ 0.582 µM) | 8 µg/mL (≈ 9.31 µM) | 0.5 µg/mL (≈ 0.582 µM) | 4 µg/mL (≈ 4.66 µM) | – | 2 µg/mL (≈ 2.33 µM) | 1 µg/mL (≈ 1.16 µM) | 8 µg/mL (≈ 9.31 µM) | 4 µg/mL (≈ 4.66 µM) | 4 µg/mL (≈ 4.66 µM) | > 128 µg/mL | – | – | 0.03 µg/mL (≈ 0.0349 µM) | – | – | 4 µg/mL (≈ 4.66 µM) | MIC ([7]; C203, Table IV, agar dilution, read-out: minimal inhibitory concentration (MIC)): 0.03 µg/mL (≈ 0.0349 µM) |
| CC[C@H]1OC(=O)[C@H](C)[C@@H](O[C@H]2C[C@@](C)(OC)[C@@H](O)[C@H](C)O2)[C@H](C)[C@@H](O[C@@H]2O[C@H](C)C[C@H](N(C)C)[C@H]2O)[C@](C)(O)C[C@@H](C)[C@H](NCCOCCOC)[C@H](C)[C@@H](O)[C@H]1C [Compound 49] | – | – | 1 µg/mL (≈ 1.22 µM) | 4 µg/mL (≈ 4.87 µM) | 0.25 µg/mL (≈ 0.304 µM) | 8 µg/mL (≈ 9.74 µM) | 0.015 µg/mL (≈ 0.0183 µM) | 1 µg/mL (≈ 1.22 µM) | 0.5 µg/mL (≈ 0.609 µM) | > 128 µg/mL | > 128 µg/mL | 128 µg/mL (≈ 156 µM) | – | 128 µg/mL (≈ 156 µM) | – | – | 0.015 µg/mL (≈ 0.0183 µM) | 128 µg/mL (≈ 156 µM) | 4 µg/mL (≈ 4.87 µM) | – |
| CCCN1CO[C@@H]2[C@@H](C)[C@@H]1[C@H](C)C[C@@](C)(O)[C@H](O[C@@H]1O[C@H](C)C[C@H](N(C)C)[C@H]1O)[C@@H](C)[C@H](O[C@H]1C[C@@](C)(OC)[C@@H](O)[C@H](C)O1)[C@@H](C)C(=O)O[C@H](CC)[C@@]2(C)O [Compound 59] | – | – | 0.125 µg/mL (≈ 0.158 µM) | – | 0.125 µg/mL (≈ 0.158 µM) | – | – | – | – | – | – | – | – | – | – | – | – | – | – | MIC [15]: > 128 µg/mL |
